Test results as given in patent US12291533B2, “Substituted fused pyrimidine compounds and uses thereof” (Northwestern University, priority 2017, dated 2025).

Biological target: T1, glucocerebrosidase (Homo sapiens, UniProt P04062)
T1 sequence (P04062 40-536): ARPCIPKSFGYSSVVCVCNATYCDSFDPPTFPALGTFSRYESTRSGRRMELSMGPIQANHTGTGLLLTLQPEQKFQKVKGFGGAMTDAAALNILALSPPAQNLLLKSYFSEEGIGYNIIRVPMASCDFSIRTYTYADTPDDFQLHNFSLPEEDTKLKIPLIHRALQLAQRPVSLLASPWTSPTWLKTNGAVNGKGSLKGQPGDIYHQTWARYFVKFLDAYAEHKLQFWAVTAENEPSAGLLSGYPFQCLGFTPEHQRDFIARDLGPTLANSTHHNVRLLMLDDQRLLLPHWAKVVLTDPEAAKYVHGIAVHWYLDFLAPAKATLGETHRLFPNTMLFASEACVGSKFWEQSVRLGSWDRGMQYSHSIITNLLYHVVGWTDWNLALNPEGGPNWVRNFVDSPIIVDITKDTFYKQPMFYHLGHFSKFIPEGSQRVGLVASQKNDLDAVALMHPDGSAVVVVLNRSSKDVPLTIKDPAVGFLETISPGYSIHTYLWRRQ
Assay: Glucocerebrosidase activity assay with blue substrate (4MU-Glc)
Format: biochemical
Protocol: Example 2—Glucocerebrosidase Activity Assay with Blue Substrate
The compounds in DMSO solution 0.5 μL/well were transferred to a black 96-well plate (the final titration was 24 nM to 50 μM, 12 concentrations, 2× dilution). 33.5 μL enzyme solution (7.5 nM final concentration) was transferred to the wells. After 5 min of incubation at room temperature, the enzyme reaction was initiated by the addition of 33 μL/well blue substrate. Final concentration of the blue substrate (4MU-Glc) was 1.5 mM. The blue substrate reaction was terminated by the addition of 33 μL/well stop solution (1 M NaOH and 1 M glycine mixture, pH 10) after 30 min of incubation at 37° C. The fluorescence was then measured in the Biotek Synergy H1 multi-mode plate reader with Ex=365 nm and Em=440 nm.
Additional compounds were synthesized and tested for glucocerebrosidase modulatory activity as described in Example 1 and Example 2.

[1] = Table 1, 7.5 nM enzyme, 1.5 mM 4MU-Glc, 30 min at 37° C.
[2] = Table 1, 7.5 nM enzyme, 1.5 mM 4MU-Glc, 30 min at 37° C., titration 24 nM to 50 μM
[3] = Table 2, additional compounds, tested as described in Example 2

| Emax [1] [%] | AC50 [2] [µM] | AC50 [3] [µM] | Emax [3] [%] | SMILES |
| --- | --- | --- | --- | --- |
| 442 | 15.8 | – | – | CN(CCOc1cccc(C(=O)O)c1)c1nc(-c2cccnc2)nc2ccccc12 [Compound 80] |
| 280 | 3.16 | – | – | CN(CCOc1ccccc1)c1nc(-c2ccnc3ccccc23)nc2ccccc12 [Compound 81] |
| 501 | 1.12 | – | – | CN(CC1Cc2ccccc2O1)c1nc(-c2cccnc2)nc2ccccc12 (stereo not drawn) [Compound 82] |
| 230 | 3.98 | – | – | CN(CCOc1ccc(C(=O)ON2C(=O)CCC2=O)cc1)c1nc(-c2cccnc2)nc2ccccc12 [Compound 83] |
| 457 | 4.47 | – | – | CN(CCOc1cccc(C(=O)ON2C(=O)CCC2=O)c1)c1nc(-c2cccnc2)nc2ccccc12 [Compound 84] |
| 460 | 2.24 | – | – | CN(CCOc1ccccc1)c1cc(-c2cccnc2)nc(-c2cccnc2)n1 [Compound 85] |
| – | 15.8 | – | – | CN(CCOc1cccc(CCO)c1)c1nc(-c2cccnc2)nc2ccccc12 [Compound 86] |
| 173 | 10 | – | – | Cn1ncc2c(NCC3CCc4ccccc4O3)nc(-c3cccnc3)nc21 (stereo not drawn) [Compound 87] |
| 142 | 5.01 | – | – | CN(c1nc(-c2cccnc2)nc2c1cnn2C)C1CCCN(c2ccccc2)C1 (stereo not drawn) [Compound 88] |
| 660 | 4.47 | – | – | CN(Cc1cc2ccccc2o1)c1nc(-c2cccnc2)nc2c1cnn2C [Compound 89] |
| 908 | 7.94 | – | – | COC(=O)Cc1cccc(OCCN(C)c2nc(-c3cccnc3)nc3c2cnn3C)c1 [Compound 90] |
| 322 | 44.7 | – | – | Cn1ncc2c(NCCOC3CCCCC3)nc(-c3cccnc3)nc21 [Compound 91] |
| 790 | 35.5 | – | – | CN(CCOc1ccccc1)c1nc(-c2cccnc2)nc2c1ncn2C [Compound 92] |
| 270 | 4.47 | – | – | CN(CCOc1ccccc1)c1nc(-c2cccnc2)nc2scnc12 [Compound 93] |
| – | 14.1 | – | – | COC(=O)Cc1cccc(OCCN(C)c2nc(-c3cccnc3)nc3ncccc23)c1 [Compound 94] |
| 721 | 4.47 | – | – | COC(=O)Cc1cccc(OCCN(C)c2nc(-c3cccnc3)nc3ccccc23)c1 [Compound 95] |
| 583 | 7.94 | – | – | CN(CCOc1cccc(CC(=O)ON2C(=O)CCC2=O)c1)c1nc(-c2cccnc2)nc2c1cnn2C [Compound 96] |
| 531 | 3.16 | – | – | CN(CCOc1ccccc1)c1nc(-c2cccnc2)nn2cccc12 [Compound 97] |
| 140 | 28.2 | – | – | CC(C)n1ncc2c(N(C)CCOc3ccccc3)nc(-c3cccnc3)nc21 [Compound 98] |
| 208 | 0.71 | – | – | CCn1ncc2c(N(C)CCOc3ccccc3)nc(-c3cccnc3)nc21 [Compound 99] |

| Emax [1] [%] | AC50 [2] [µM] | AC50 [3] [µM] | Emax [3] [%] | SMILES |
| --- | --- | --- | --- | --- |
| 833 | 5.62 | – | – | Cn1ncc2c(N3CC[C@@H](Oc4ccccc4)C3)nc(-c3cccnc3)nc21 [Compound 100] |
| 197 | 79.4 | – | – | CN(CCN1CCc2ccccc2C1)c1nc(-c2cccnc2)nc2c1cnn2C [Compound 101] |
| – | 25.1 | – | – | CN(CCOC1CCCCC1)c1nc(-c2cccnc2)nc2c1cnn2C [Compound 102] |
| 371 | 3.16 | – | – | CN(CCOc1ccc2c(c1)CCCC2)c1nc(-c2cccnc2)nc2c1cnn2C [Compound 103] |
| 425 | 6.31 | – | – | CN(Cc1ccc2ccccc2n1)c1nc(-c2cccnc2)nc2c1cnn2C [Compound 104] |
| 662 | 6.31 | – | – | CN(CC1CCc2ccccc2O1)c1nc(-c2cccnc2)nc2c1cnn2C (stereo not drawn) [Compound 105] |
| 250 | 1.12 | – | – | CCn1ncc2c(N(C)C[C@H]3COc4ccccc4O3)nc(-c3cccnc3)nc21 [Compound 106] |
| 400 | 7.08 | – | – | CCn1ncc2c(N(C)Cc3ccc4c(c3)OCO4)nc(-c3cccnc3)nc21 [Compound 108] |
| 475 | 14.1 | – | – | CN(Cc1ccc2ncccc2c1)c1nc(-c2cccnc2)nc2c1cnn2C [Compound 109] |
| 750 | 7.94 | – | – | CCn1ncc2c(N(C)CCOc3ccc(CN)cc3)nc(-c3cccnc3)nc21 [Compound 110] |
| 675 | 0.5 | – | – | CCn1ncc2c(N(C)CCOc3ccc(CNC(=O)CCCCCNC(=O)OC(C)(C)C)cc3)nc(-c3cccnc3)nc21 [Compound 111] |
| 530 | 3.55 | – | – | CCn1ncc2c(N(C)CCOc3ccc(CNC(=O)CCCCCN)cc3)nc(-c3cccnc3)nc21 [Compound 112] |
| – | – | 12.6 | 210 | Cn1ncc2c(N3CCC[C@H](C(=O)Nc4ccccc4)C3)nc(-c3cccnc3)nc21 [Compound 116] |
| – | – | 14.1 | 310 | Cn1ncc2c(N3CCC[C@@H](C(=O)Nc4ccccc4)C3)nc(-c3cccnc3)nc21 [Compound 117] |
| – | – | 3.16 | 105 | CCc1ccc(-c2nc(N(C)CCOc3ccc(C#N)cc3)c3cnn(CC)c3n2)cc1 [Compound 123] |
| – | – | 6.31 | 480 | CCc1ccc(-c2nc(N(C)CCOc3ccc(CN)cc3)c3cnn(CC)c3n2)cc1 [Compound 124] |
| – | – | 6.31 | 610 | CCn1ncc2c(N(C)CCOc3ccc(CNC(C)=O)cc3)nc(-c3cccnc3)nc21 [Compound 125] |
| – | – | 0.2 | 150 | CCCCCC(=O)NCc1ccc(OCCN(C)c2nc(-c3cccnc3)nc3c2cnn3CC)cc1 [Compound 126] |
| – | – | 35.5 | 325 | CN(CCC(=O)Nc1ccccc1)c1nc(-c2cccnc2)nc2ccccc12 [Compound 127] |
| – | – | 44.7 | 275 | CN(CCC(=O)Nc1ccccc1)c1nc(-c2cccnc2)nc2c1cnn2C [Compound 128] |

| Emax [1] [%] | AC50 [2] [µM] | AC50 [3] [µM] | Emax [3] [%] | SMILES |
| --- | --- | --- | --- | --- |
| – | – | 1.67 | – | CN(C)c1ccc2c(-c3ccc(C(=O)NCCOCCOCCOCCOCCC(=O)NCCCCCC(=O)Nc4ccc(-c5nc(N(C)CCOc6ccccc6)c6ccccc6n5)cc4)cc3C(=O)[O-])c3ccc(=[N+](C)C)cc-3oc2c1 [Compound 135] |
| – | – | 2 | 138 | CCn1ncc2c(N(C)CCOc3ccc(C#N)cc3)nc(-c3ccsc3)nc21 [Compound 136] |
| – | – | 2 | 200 | CCn1ncc2c(N(C)CCOc3ccc(CN)cc3)nc(-c3ccsc3)nc21 [Compound 137] |
| – | – | 10 | 875 | CN(CCOc1ccc2nccnc2c1)c1nc(-c2cccnc2)nc2ccccc12 [Compound 138] |
| – | – | 6.31 | 980 | CCn1ncc2c(N(C)CCOc3ccc(CNC(=O)CNC(=O)OC(C)(C)C)cc3)nc(-c3cccnc3)nc21 [Compound 139] |
| – | – | 2.82 | 980 | CCn1ncc2c(N(C)CCOc3ccc(CNC(=O)CCNC(=O)OC(C)(C)C)cc3)nc(-c3cccnc3)nc21 [Compound 140] |
| – | – | 0.5 | 800 | CCn1ncc2c(N(C)CCOc3ccc(CNC(=O)CCCCNC(=O)OC(C)(C)C)cc3)nc(-c3cccnc3)nc21 [Compound 141] |
| – | – | 3.16 | 700 | CCc1cncc(-c2nc(N(C)CCOc3ccccc3)c3ccccc3n2)c1 [Compound 144] |
| – | – | 1.6 | 185 | CN(CCOc1ccccc1)c1nc(-c2cnc3ccccc3c2)nc2ccccc12 [Compound 145] |
| – | – | 1.41 | 940 | CCn1ncc2c(N(C)CCOc3ccc(CNC(=O)CCCNC(=O)OC(C)(C)C)cc3)nc(-c3cccnc3)nc21 [Compound 146] |
| – | – | 4.47 | 450 | CN(CCOc1ccc2[nH]ccc2c1)c1nc(-c2cccnc2)nc2ccccc12 [Compound 147] |
| – | – | 35 | 285 | c1cncc(-c2nc(N3CCc4cccnc4C3)c3ccccc3n2)c1 [Compound 148] |
| – | – | 0.4 | 157 | CCn1ncc2c(N(C)CCOc3ccc(CNC(=O)CCCCNC(=O)OC(C)(C)C)cc3)nc(-c3ccsc3)nc21 [Compound 149] |
| – | – | 1.25 | 135 | CCN1Cc2nc(-c3cccnc3)nc(N(C)CCOc3ccccc3)c2C1 [Compound 150] |
| – | – | 2.5 | 305 | CN(CCOc1ccccc1)c1nc(-c2cccnc2)nc2c1cnn2-c1ccccc1 [Compound 151] |
| – | – | 2 | 425 | CN(CCOc1ccccc1)c1nc(-c2cccnc2)nc2c1cnn2Cc1ccccc1 [Compound 152] |
| – | – | 1.58 | 178 | CN(CCOc1ccccc1)c1nc(-c2cccnc2)nc2c1oc1ccccc12 [Compound 153] |
| – | – | 4.47 | 190 | c1ccc(O[C@H]2CCN(c3nc(-c4cccnc4)nc4ccccc34)C2)cc1 [Compound 154] |
| – | – | 1.78 | 260 | c1ccc(O[C@@H]2CCN(c3nc(-c4cccnc4)nc4ccccc34)C2)cc1 [Compound 155] |
